Test results reported in publication PMC12722308, “A phase 1 study of orally administered 5-fluoro-2’-deoxycytidine with tetrahydrouridine in patients with refractory solid tumors” (Cancer Chemotherapy and Pharmacology, 2025).
Several values for one entry are separate records, joined by “and”; a condition that tells them apart may be missing. Equal values may be shown once. Read-outs that look alike come from different tables or passages of the source.

What was measured:
[1] = Plasma pharmacokinetics by LC-MS/MS; type: in vivo, human; conditions: for THU AUC0-6/Dose / THU Cl/F / THU Cmax/Dose / Tmax / Vd/F / half-life / AUC(0-inf) / Cmax / AUC(0-t) / concentration at 24 h / concentration at 48 h: geom. mean (geom. SD); for Tmax: read-out: THU Tmax; for Vd/F: read-out: THU Vz/F; for half-life: read-out: THU t½ (converted); for AUC(0-inf): read-out: THU AUC0-inf; for Cmax: read-out: THU Cmax; for AUC(0-t): read-out: THU AUC0-6; for concentration at 24 h: read-out: THU Cmin24h; for concentration at 48 h: read-out: THU Cmin48h
Experimental: (§1) Blood specimens for PK analysis were collected on Cycle 1 Day 1 (C1D1) prior to THU administration and then at 15, 30, and 45 min and 1, 2, 3, 4, 5, and 6 h after THU administration, as well as on C1D2 and C1D3 prior to and 2 h after THU administration. Urine specimens for PK analysis were collected on C1D1 prior to treatment and then at every void from 0 to 24 h after THU administration. All specimens for PK analysis were processed and analyzed by LC-MS/MS as described previously, and Phoenix WinNonlin software was used for data analysis.

[2] = cited from earlier work
[3] = Phase 1 dose escalation: adverse events (CTCAE v4.0), DLT, MTD/RP2D; type: in vivo, human; conditions: orally once daily with 160 mg FdCyd on days 1–6 and 8–13 of each 21-day cycle (dose level 8)
Experimental: FdCyd and THU were supplied by the NCI Division of Cancer Treatment and Diagnosis. Patients were administered both drugs orally in 21-day cycles, and dose escalation proceeded according to a traditional 3 + 3 design as per the dose escalation schema shown in Supplementary Table S1. […] Patients maintained a study diary to note any side effects or concurrent medications. The NCI Common Terminology Criteria for Adverse Events version 4.0 was used to grade adverse events. Tumor response was assessed by radiography at baseline and every 2 cycles thereafter and evaluated per RECIST version 1.1 [11]. Following determination of the maximum tolerated dose (MTD)/recommended phase 2 dose (RP2D), an additional 13 patients were enrolled on a RP2D expansion cohort for assessments of pharmacodynamic biomarkers in baseline and on-treatment tumor biopsies.
DLTs were defined as toxicities that were at least possibly related to FdCyd or THU within the first cycle of treatment and met one of the following criteria: grade ≥ 3 non-hematological toxicity (including grade 3 nausea, vomiting, or diarrhea only if refractory to standard supportive care; grade 3 electrolyte toxicities only if unable to be corrected to ≤ grade 1 within 24 h; and tumor pain only if refractory to analgesics); grade 4 thrombocytopenia; or grade 4 neutropenia lasting ≥ 5 days or febrile neutropenia. […]

[4] = Urinary excretion by LC-MS/MS; type: in vivo, human; conditions: geom. mean (geom. SD)
Experimental: as §1

[5] = system: leukemias and myelodysplastic syndromes; set-up: method as in PMID 23671007; conditions: specific indications of leukemias and myelodysplastic syndromes; cited from earlier work
[6] = set-up: method as in PMID 21576646; conditions: oral administration, phase 1 study; cited from earlier work
[7] = DL1-DL9: THU 3000 mg oral once daily (n=44)
[8] = DL10-DL11: THU 6000 mg oral twice daily (n=11)
[9] = human, plasma, oral, Total, all dose levels (n=55)
[10] = human, plasma, po, 3000 mg, DL1-DL9: THU 3000 mg oral once daily (n=44)
[11] = human, plasma, po, 6000 mg, DL10-DL11: THU 6000 mg oral twice daily (n=11)
[12] = human, plasma, DL1-DL9: THU 3000 mg oral once daily (n=44)
[13] = human, plasma, DL10-DL11: THU 6000 mg oral twice daily (n=11)

Structure (SMILES): O=C1NC(O)CCN1[C@@H]1O[C@H](CO)[C@@H](O)[C@H]1O (stereo partly drawn) [THU, tetrahydrouridine]
- THU exposure in patients who experienced a DLT vs those who did not ([1]; AUC0−6 P = 0.007, Cmax P = 0.005, C24h P = 0.002, C48h P = 0.004): significantly higher THU exposures
- THU AUC0-6/Dose [1, 7]: 2.25 (1.63) µg/L•h / mg
- THU Cl/F [1, 7]: 142 L/h and 142 (1.8) L/h
- THU Cmax/Dose [1, 7]: 505 (1.7) µg/L / g
- THU AUC0-6/Dose [1, 8]: 1.79 (1.37) µg/L•h / mg
- THU Cl/F [1, 8]: 190 (1.6) L/h
- THU Cmax/Dose [1, 8]: 390 (1.4) µg/L / g
- Increase in THU 24 and 48 h trough concentrations ([1]; THU 6000 mg twice daily vs 3000 mg once daily, expected 4-fold): ~10 fold
- THU AUC0-6/Dose ([1]; Total, all dose levels (n=55)): 2.15 (1.60) µg/L•h / mg
- THU Cl/F ([1]; Total, all dose levels (n=55)): 147 (1.7) L/h
- THU Cmax/Dose ([1]; Total, all dose levels (n=55)): 480 (1.6) µg/L / g
- THU plasma concentrations for the oral RP2D compared with the intravenous RP2D of 350 mg/m^2 THU ([1]; comparison with ref 8): 9–13 % lower
- Tmax [1, 9]: ~3 h
- Vd/F [1, 9]: 1830 L
- half-life [1, 9]: 8.7 h
- bioavailability ([1]; human, plasma, oral, from previous clearance (43 mL/min/m^2) vs current Cl/F (142 L/h), read-out: THU bioavailability in the current study): ~3%
- AUC(0-inf) [1, 10]: 21100 ng·h/mL
- Cmax [1, 10]: 1520 ng/mL
- Tmax [1, 10]: 3 h
- Vd/F [1, 10]: 1810 L
- half-life [1, 10]: 8.8 h
- AUC(0-inf) [1, 11]: 31600 ng·h/mL
- Cmax [1, 11]: 2340 ng/mL
- Tmax [1, 11]: 3.2 h
- Vd/F [1, 11]: 2040 L
- half-life ([1]; human, plasma, po, 6000 mg, DL10-DL11: THU 6000 mg oral twice daily, half-life determined for only 6 patients): 7.4 h
- AUC(0-t) [1, 12]: 6750 ng·h/mL
- concentration at 24 h [1, 12]: 260 ng/mL
- concentration at 48 h [1, 12]: 330 ng/mL
- AUC(0-t) [1, 13]: 10800 ng·h/mL
- concentration at 24 h [1, 13]: 2520 ng/mL
- concentration at 48 h [1, 13]: 3170 ng/mL
- THU bioavailability, previously established [2]: 4.1%
- THU clearance, previous values ([2]; intravenous THU, ref previous clearance values): 43 mL/min/m^2
- Maximum tolerated dose / RP2D, THU dose [3]: 3000 mg
- THU urinary excretion over 0-24 hours of day 1 ([4]; All FdCyd doses + THU 3000 mg, N=42): 2.1 (2.0) % dose
- THU urinary excretion over 0-24 hours of day 1 ([4]; All FdCyd doses + THU 6000 mg, N=10): 1.2 (2.5) % dose
- THU urinary excretion over 0-24 hours of day 1 ([4]; DL1: FdCyd 30 mg + THU 3000 mg, N=3): 2.9 (2.0) % dose
- THU urinary excretion over 0-24 hours of day 1 ([4]; DL2: FdCyd 60 mg + THU 3000 mg, N=3): 2.8 (1.6) % dose
- THU urinary excretion over 0-24 hours of day 1 ([4]; DL3: FdCyd 90 mg + THU 3000 mg, N=3): 2.1 (1.4) % dose
- THU urinary excretion over 0-24 hours of day 1 ([4]; DL4: FdCyd 120 mg + THU 3000 mg, N=3): 1.1 (4.8) % dose
- THU urinary excretion over 0-24 hours of day 1 ([4]; DL5-9: FdCyd 160 mg + THU 3000 mg, N=30): 2.1 (1.8) % dose
- THU urinary excretion over 0-24 hours of day 1 ([4]; DL10: FdCyd 60 mg + THU 6000 mg, N=7): 1.1 (2.9) % dose
- THU urinary excretion over 0-24 hours of day 1 ([4]; DL11: FdCyd 80 mg + THU 6000 mg, N=3): 1.6 (1.7) % dose
- THU urinary excretion over 0-24 hours of day 1 ([4]; Total, all dose levels, N=52): 1.9 (2.1) % dose

Structure (SMILES): Nc1ncn([C@@H]2O[C@H](CO)[C@@H](O)[C@H]2O)c(=O)n1 [azacytidine]
- Response rates [5]: > 50%
- Most common grade 3/4 toxicity and dose-limiting toxicity [6]: diarrhea

Structure (SMILES): Nc1ncn([C@H]2C[C@H](O)[C@@H](CO)O2)c(=O)n1 [decitabine, 5-aza-2’deoxycytidine]
- Response rates [5]: > 50%
